# Molecular target: T1, Human TREM2 (Homo sapiens, UniProt Q9NZC2)
# T1 construct: expressed in transfected cells
# Assay: Human TREM2 activity: cellular phosphorylation of Syk (AlphaLISA SureFire Ultra p-SYK) in HEK293/DAP12+TREM2 stable cell line
# Type: cell-based
# Conditions: for Emax: HEK293, maximal response relative to reference agonist example 1B (remaining examples), read-out: Emax; for EC50: phospho-Syk AlphaLISA signal, HEK293/DAP12+TREM2 cells, concentration giving 50% of maximal response, read-out: EC50
# Summary of the method: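 The read-out was p-Syk (Tyr525/526), measured by AlphaLISA in lysates of a stable HEK293/DAP12+TREM2 clone. Cells (10,000/well, plated the day before) received compound for 30 min at 37 °C. Dosing used 8 points in quadruplicate, top 100 μM with 1:6 dilution, 0.5% final DMSO.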
# T1 sequence (Q9NZC2 19-230): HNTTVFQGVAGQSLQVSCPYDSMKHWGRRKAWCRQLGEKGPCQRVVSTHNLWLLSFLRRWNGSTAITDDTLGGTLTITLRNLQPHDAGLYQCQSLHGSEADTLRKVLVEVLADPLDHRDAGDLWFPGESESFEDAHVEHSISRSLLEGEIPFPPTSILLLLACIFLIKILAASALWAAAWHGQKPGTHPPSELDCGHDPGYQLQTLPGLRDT
# T1 sequence (O43914 22-113 partner): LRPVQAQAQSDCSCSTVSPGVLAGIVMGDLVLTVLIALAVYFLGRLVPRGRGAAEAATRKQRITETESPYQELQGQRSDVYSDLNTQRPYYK
structure (smiles),measurement,value
"COc1ccc(Cn2c(C)nc3c(-c4ccc(Cl)cc4F)nc(N4CCOC(c5cnn(C)c5)C4)nc3c2=O)cc1 (centres unmarked) [Example 59, 8-(4-chloro-2-fluorophenyl)-3-(4-methoxybenzyl)-2-methyl-6-(2-(1-methyl-1H-pyrazol-4-yl)morpholino)pyrimido[5,4-d]pyrimidin-4(3H)-one]",Emax,75 to 110%
same,EC50,100 to 1000 nM
"Cc1nc2c(-c3ccc(Cl)cc3F)nc(N3CCOC(c4cnn(C)c4)C3)nc2c(=O)[nH]1 (centres unmarked) [Example 60, 8-(4-chloro-2-fluorophenyl)-2-methyl-6-(2-(1-methyl-1H-pyrazol-4-yl)morpholino)pyrimido[5,4-d]pyrimidin-4 (3H)-one]",Emax,< 75%
same,EC50,100 to 1000 nM
"COCCn1c(C)nc2c(-c3ccc(Cl)cc3F)nc(N3CCOC(c4cnn(C)c4)C3)nc2c1=O (centres unmarked) [Example 61, 8-(4-chloro-2-fluorophenyl)-3-(2-methoxyethyl)-2-methyl-6-(2-(1-methyl-1H-pyrazol-4-yl)morpholino)pyrimido[5,4-d]pyrimidin-4(3H)-one]",Emax,< 75%
same,EC50,10 to 100 nM
"Cc1nc2c(-c3ccc(Cl)cc3F)nc(N3CC(c4cnn(C)c4)OC(C)(C)C3)nc2c(=O)n1C (centres unmarked) [Example 62, 8-(4-chloro-2-fluorophenyl)-6-(2,2-dimethyl-6-(1-methyl-1H-pyrazol-4-yl)morpholino)-2,3-dimethylpyrimido[5,4-d]pyrimidin-4 (3H)-one]",Emax,< 75%
same,EC50,1 to 10 nM
"Cc1nc2c(-c3ccc(Cl)cc3F)nc(N3CCC(c4cnn(C)c4)C3)nc2c(=O)n1C (centres unmarked) [Example 63, 8-(4-chloro-2-fluorophenyl)-2,3-dimethyl-6-[3-(1-methyl-1H-pyrazol-4-yl)pyrrolidin-1-yl]-3H,4H-pyrimido[5,4-d][1,3]diazin-4-one]",Emax,< 75%
same,EC50,10 to 100 nM
"Cc1nc2c(-c3ccc(Cl)cc3F)nc(N3CC[C@@H](Oc4cnn(C)c4)C3)nc2c(=O)n1C [Example 64, (R)-8-(4-chloro-2-fluorophenyl)-2,3-dimethyl-6-(3-((1-methyl-1H-pyrazol-4-yl)oxy)pyrrolidin-1-yl)pyrimido[5,4-d]pyrimidin-4 (3H)-one]",Emax,< 75%
same,EC50,10 to 100 nM
"COCCn1cc(C2CN(c3nc(-c4ccc(Cl)cc4F)c4nc(C)n(C)c(=O)c4n3)CCO2)cn1 (centres unmarked) [Example 69, 8-(4-chloro-2-fluorophenyl)-6-(2-(1-(2-methoxyethyl)-1H-pyrazol-4-yl)morpholino)-2,3-dimethylpyrimido[5,4-d]pyrimidin-4 (3H)-one]",Emax,< 75%
same,EC50,10 to 100 nM
"Cc1nc2c(-c3ccc(F)cc3Cl)nc(N3CCOC(c4cnn(C)c4)C3)nc2c(=O)n1C (centres unmarked) [Example 70, 8-(2-chloro-4-fluorophenyl)-2,3-dimethyl-6-(2-(1-methyl-1H-pyrazol-4-yl)morpholino)pyrimido[5,4-d]pyrimidin-4 (3H)-one]",Emax,< 75%
same,EC50,> 1000 nM
"Cc1nc2c(C3CC4(C3)CC(F)(F)C4)nc(N3CCOC(c4cnn(C)c4)C3)nc2c(=O)n1C (centres unmarked) [Example 72, 8-(6,6-difluorospiro[3.3]heptan-2-yl)-2,3-dimethyl-6-(2-(1-methyl-1H-pyrazol-4-yl)morpholino)pyrimido[5,4-d]pyrimidin-4 (3H)-one]",Emax,75 to 110%
same,EC50,100 to 1000 nM
"Cc1nc2c(-c3ccc(Cl)cc3F)nc(N3CCOC(c4cn(C)nn4)C3)nc2c(=O)n1C (centres unmarked) [Example 73, 8-(4-chloro-2-fluorophenyl)-2,3-dimethyl-6-(2-(1-methyl-1H-1,2,3-triazol-4-yl)morpholino)pyrimido[5,4-d]pyrimidin-4 (3H)-one]",Emax,75 to 110%
same,EC50,100 to 1000 nM
"Cc1nc2c(-c3ccc(Cl)cc3F)nc(N3CC[C@H](Oc4cnn(C)c4)C3)nc2c(=O)n1C [Example 74, (S)-8-(4-chloro-2-fluorophenyl)-2,3-dimethyl-6-(3-((1-methyl-1H-pyrazol-4-yl)oxy)pyrrolidin-1-yl)pyrimido[5,4-d]pyrimidin-4 (3H)-one]",Emax,< 75%
same,EC50,> 1000 nM
"Cc1nc2c(-c3ccc(Cl)cc3F)nc(N3CCC[C@H](Oc4cnn(C)c4)C3)nc2c(=O)n1C [Example 75, (S)-8-(4-chloro-2-fluorophenyl)-2,3-dimethyl-6-(3-((1-methyl-1H-pyrazol-4-yl)oxy)piperidin-1-yl)pyrimido[5,4-d]pyrimidin-4 (3H)-one]",Emax,< 75%
same,EC50,100 to 1000 nM
"Cc1nc2c(-c3ccc(Cl)cc3F)nc(N3CCC[C@@H](Oc4cnn(C)c4)C3)nc2c(=O)n1C [Example 76, (R)-8-(4-chloro-2-fluorophenyl)-2,3-dimethyl-6-(3-((1-methyl-1H-pyrazol-4-yl)oxy)piperidin-1-yl)pyrimido[5,4-d]pyrimidin-4 (3H)-one]",Emax,75 to 110%
same,EC50,100 to 1000 nM
"Cc1nc2c(-c3ccc(Cl)cc3F)nc(N3CCC(Oc4cnn(C)c4)CC3)nc2c(=O)n1C [Example 77, 8-(4-chloro-2-fluorophenyl)-2,3-dimethyl-6-(4-((1-methyl-1H-pyrazol-4-yl)oxy)piperidin-1-yl)pyrimido[5,4-d]pyrimidin-4 (3H)-one]",Emax,75 to 110%
same,EC50,> 1000 nM
"Cc1nc2c(-c3ccc(Cl)cc3F)nc(N3CCCC(N4CCOCC4)C3)nc2c(=O)n1C (centres unmarked) [Example 78, 8-(4-chloro-2-fluorophenyl)-2,3-dimethyl-6-(3-morpholinopiperidin-1-yl)pyrimido[5,4-d]pyrimidin-4 (3H)-one]",Emax,75 to 110%
same,EC50,100 to 1000 nM
"COC1CN(C2CCCN(c3nc(-c4ccc(Cl)cc4F)c4nc(C)n(C)c(=O)c4n3)C2)C1 (centres unmarked) [Example 79, 8-(4-chloro-2-fluorophenyl)-6-(3-(3-methoxyazetidin-1-yl)piperidin-1-yl)-2,3-dimethylpyrimido[5,4-d]pyrimidin-4 (3H)-one]",Emax,< 75%
same,EC50,> 1000 nM
"Cc1nc2c(-c3ccc(Cl)cc3F)nc(N3CCCC(N4CC(F)(F)C4)C3)nc2c(=O)n1C (centres unmarked) [Example 80, 8-(4-chloro-2-fluorophenyl)-6-(3-(3,3-difluoroazetidin-1-yl)piperidin-1-yl)-2,3-dimethylpyrimido[5,4-d]pyrimidin-4 (3H)-one]",Emax,< 75%
same,EC50,> 1000 nM
"Cc1nc2c(-c3ccc(Cl)cc3F)nc(N3CCOC(c4ncc[nH]4)C3)nc2c(=O)n1C (centres unmarked) [Example 81, 6-(2-(1H-imidazol-2-yl)morpholino)-8-(4-chloro-2-fluorophenyl)-2,3-dimethylpyrimido[5,4-d]pyrimidin-4(3H)-one]",Emax,< 75%
same,EC50,> 1000 nM
"Cc1nc2c(-c3ccc(Cl)cc3F)nc(N3CCOC(c4cn(C)cn4)C3)nc2c(=O)n1C (centres unmarked) [Example 82, 8-(4-chloro-2-fluorophenyl)-2,3-dimethyl-6-(2-(1-methyl-1H-imidazol-4-yl)morpholino)pyrimido[5,4-d]pyrimidin-4(3H)-one]",Emax,75 to 110%
same,EC50,> 1000 nM
"Cc1nc2c(-c3ccc(Cl)cc3F)nc(N3CCc4cncnc4CC3)nc2c(=O)n1C [Example 83, 8-(4-chloro-2-fluorophenyl)-2,3-dimethyl-6-(5,6,8,9-tetrahydro-7H-pyrimido[4,5-d]azepin-7-yl)pyrimido[5,4-d]pyrimidin-4(3H)-one]",Emax,< 75%
same,EC50,> 1000 nM
"Cc1cnccc1OC1CCN(c2nc(-c3ccc(Cl)cc3F)c3nc(C)n(C)c(=O)c3n2)CC1 [Example 84, 8-(4-chloro-2-fluorophenyl)-2,3-dimethyl-6-(4-((3-methylpyridin-4-yl)oxy)piperidin-1-yl)pyrimido[5,4-d]pyrimidin-4(3H)-one]",Emax,< 75%
same,EC50,100 to 1000 nM
"Cc1nc2c(-c3ccc(Cl)cc3F)nc(N3CCOC4(CCc5ccccc54)C3)nc2c(=O)n1C (centres unmarked) [Example 85, 8-(4-chloro-2-fluorophenyl)-6-(2,3-dihydrospiro[indene-1,2′-morpholin]-4′-yl)-2,3-dimethylpyrimido[5,4-d]pyrimidin-4(3H)-one]",Emax,< 75%
same,EC50,> 1000 nM
"Cc1nc2c(-c3ccc(Cl)cc3F)nc(N3CCCc4ccncc4C3)nc2c(=O)n1C [Example 86, 8-(4-chloro-2-fluorophenyl)-2,3-dimethyl-6-(5,6,7,9-tetrahydro-8H-pyrido[3,4-c]azepin-8-yl)pyrimido[5,4-d]pyrimidin-4(3H)-one]",Emax,< 75%
same,EC50,> 1000 nM
"Cc1nc2c(C3CCNCC3)nc(N3CCOC(c4cnn(C)c4)C3)nc2c(=O)n1C (centres unmarked) [Example 87, 2,3-dimethyl-6-(2-(1-methyl-1H-pyrazol-4-yl)morpholino)-8-(piperidin-4-yl)pyrimido[5,4-d]pyrimidin-4 (3H)-one]",Emax,75 to 110%
same,EC50,> 1000 nM
"Cc1nc2c(-c3ccc(Cl)cc3F)nc(N3CC(c4cnn(C)c4)OC4(CCC4)C3)nc2c(=O)n1C (centres unmarked) [Example 90, 8-(4-chloro-2-fluorophenyl)-2,3-dimethyl-6-(6-(1-methyl-1H-pyrazol-4-yl)-5-oxa-8-azaspiro(3,5)nonan-8-yl)pyrimido(5,4-d)pyrimidin-4 (3H)-one]",Emax,75 to 110%
same,EC50,1 to 10 nM
"Cc1nc2c(-c3ccc(Cl)cc3F)nc(N3CCOC(c4cnn(C)n4)C3)nc2c(=O)n1C (centres unmarked) [Example 91, 8-(4-chloro-2-fluorophenyl)-2,3-dimethyl-6-(2-(2-methyl-2H-1,2,3-triazol-4-yl)morpholino)pyrimido[5,4-d]pyrimidin-4 (3H)-one]",Emax,75 to 110%
same,EC50,1 to 10 nM
"Cc1nc2c(-c3cc(C(F)(F)F)nn3C)nc(N3CCOC(c4cnn(C)c4)C3)nc2c(=O)n1C (centres unmarked) [Example 99, 2,3-dimethyl-6-(2-(1-methyl-1H-pyrazol-4-yl)morpholino)-8-(1-methyl-3-(trifluoromethyl)-1H-pyrazol-5-yl)pyrimido[5,4-d]pyrimidin-4 (3H)-one]",Emax,< 75%
same,EC50,100 to 1000 nM
"Cc1nc2c(-c3ccc(Cl)cc3F)cc(N3CCOC(c4cnn(C)c4)C3)nc2c(=O)n1C (centres unmarked) [Example 104, 8-(4-chloro-2-fluorophenyl)-2,3-dimethyl-6-(2-(1-methyl-1H-pyrazol-4-yl)morpholino)pyrido[3,2-d]pyrimidin-4 (3H)-one]",Emax,75 to 110%
same,EC50,100 to 1000 nM
